Source: ChEMBL document CHEMBL4118129, “Evaluation of novel TGR5 agonist in combination with Sitagliptin for possible treatment of type 2 diabetes” (Bioorg Med Chem Lett, 2018)

Assays:
Type in all cases: ADME, organism-based
[1] = Tmax in C57BL/6 mouse at 30 mg/kg, po by LC-MS/MS analysis; conditions: in vivo
[2] = Cmax in C57BL/6 mouse at 30 mg/kg, po by LC-MS/MS analysis; design: dose 30 mg/kg, route oral; conditions: in vivo
[3] = AUC in C57BL/6 mouse at 30 mg/kg, po by LC-MS/MS analysis; conditions: in vivo
[4] = Terminal half life in C57BL/6 mouse at 30 mg/kg, po by LC-MS/MS analysis; conditions: in vivo, read-out: beta t1/2 (converted)

## COc1ccc(C(C)(C)c2cnc(SCCOCc3ccc(C#N)cc3)n2-c2ccc(F)cc2)cc1OC
[1]
  Tmax: 12 min
[2]
  Cmax: 2100 nM
[3]
  AUC: 2.5 µM·h
[4]
  half-life: 60 min
